Patent publication US10988741B2, “Mutated genes for the catalytic protein of Oplophorus luciferase and use thereof” (JNC CORPORATION, priority 2014, dated 2021)

Assays:
[1] = Luminescence activity of nanoKAZ mutants in culture medium of CHO-K1 cells without secretory signal peptide sequence; type: biochemical; details: substrate coelenterazine (CTZ), nanoKAZ = 1.0
Description: (§1) Chinese hamster ovary cell line CHO-K1 was cultured in Ham's F-12 medium (manufactured by Wako Pure Chemical Industries, Ltd.) supplemented with 10% (v/v) fetal bovine serum (manufactured by Biowest Inc.). The CHO-K1 cells were seeded in a 6-well plate in 2×10^5 cells/well/2 mL medium (n=2) and cultured in an incubator at 37° C. in 5% (v/v) CO2. After 24 hours, the purified recombinant plasmid was transfected to CHO-K1 cells using a FuGene HD transfection kit (manufactured by Promega Corp.) and the cells were provided for subsequent experiment. […]
(§2) The crude enzyme solution, 5 μl, obtained in EXAMPLE 8 was added to 100 μl of 30 mM Tris-HCl (pH 7.6)-10 mM EDTA (Wako Pure Chemical Industries, Ltd.) containing 1 μg of coelenterazine (manufactured by JNC Corp.), and the luminescence reaction was started. Luminescence activity was measured for 60 seconds using a luminometer (manufactured by Atto Inc.: AB2200); the maximum intensity of luminescence (Imax) and the integrated values for 60 seconds within parentheses in terms of relative intensity of luminescence are shown in TABLE 3.
Luminescence activity of the nanoKAZ mutants in culture medium, which were secreted from animal culture cells without using a secretory signal peptide sequence, was measured by the method described in EXAMPLE 9. […]

[2] = Luminescence activity of ZZ-fused nanoKAZ mutants expressed in E. coli (soluble fraction); type: biochemical; details: nanoKAZ with CTZ = 1.0
Description: The E. coli BL21 strain (manufactured by Novagen) was used as a host cell. The strain was cultured in 10 mL of Luria-Bertani medium containing ampicillin (50 μg/mL) at 37° C. for 18 hours. The seed culture was inoculated to 10 mL of LB medium and incubated for 3 hours, followed by cooling in an ice-water bath for 1 hour. IPTG was added to the culture medium at a final concentration of 0.2 mM, followed by incubation at 15° C. for further 20 hours. The E. coli cells were collected from 1 mL of the culture medium by centrifugation. The collected E. coli cells were suspended in 0.5 mL of 50 mM Tris-HCl (pH 7.6) containing 10 mM EDTA (manufactured by Wako Pure Chemical Industries, Ltd.). The cells were disrupted by sonication for 5 seconds using a Branson Model 250 Sonifire. The cells were subjected to high-speed centrifugation to recover 0.5 mL of the supernatant as a soluble fraction containing the ZZ-fused nanoKAZ mutant. This soluble fraction, 5 μL, was subjected to SDS-PAGE electrophoresis to confirm expression of the proteins. In FIG. 2, numerals 1 to 5 represent as follows: 1: molecular weight size markers; 2: nanoKAZ, 3: nanoKAZ-AQQL, 4: nanoKAZ-KVA, 5: nanoKAZ-FLM. The results in FIG. 2 reveal that each mutated nanoKAZ protein was expressed in E. coli as soluble proteins at the same expression level as in nanoKAZ.
After 5 μL of the soluble fraction solution obtained in EXAMPLE 3 was added to 100 μL of 50 mM Tris-HCl (pH 7.6)-10 mM EDTA containing 1 μg of coelenterazine (manufactured by JNC Corp.) or its analogue, a luminescence reaction was started. Luminescence activity was measured for 60 seconds using a luminometer (manufactured by Atto Inc.: AB2200). The relative maximum intensity of luminescence (Imax) and the integrated values for 60 seconds within parentheses in terms of relative intensity of luminescence are shown in TABLE 2.
The coelenterazine analogues used for substrate specificity studies were synthesized by the methods described in publications, respectively. Specifically, bis-coelenterazine was synthesized by the method described in Nakamura et al. (1997) Tetrahedron Lett. 38: 6405-6406, furimazine by the method described in Hall et al. (2012) ACS Chem. Biol. […], h-coelenterazine by the method described in Inouye et al (2010) Anal. Biochem. 407:247-252 and 6h-coelenterazine and 6h-f-coelenterazine by the method described in Inouye et al (2013) Biochem. Biophys. Res. Commun. 437: 23-28. f-coelenterazine was purchased from Prolume Ltd. Luminescence activity of the ZZ-fused nanoKAZ mutants was measured by the method described in EXAMPLE 4.

[3] = Luminescence activity of nanoKAZ mutants secreted into culture medium from CHO-K1 cells using secretory signal peptide sequence; type: biochemical; details: substrate furimazine, with secretory signal peptide, nanoKAZ with CTZ = 1.0
Description: as §1, with “experiment. Specifically, 1 μg of the recombinant plasmid, 0.1 μg of the internal standard vector pGL4.13 [Luc2/sv40] and 3.3 μL of FuGene HD were added to 100 μL of the medium and allowed to stand at room temperature for 15 minutes.” for “experiment.”
Luminescence activity was measured for 60 seconds using a luminometer (manufactured by Atto Inc.: AB2200); the maximum intensity of luminescence (Imax) and the integrated values for 60 seconds within parentheses in terms of relative intensity of luminescence are shown in TABLE 3.
(§3) Luminescence activity of the nanoKAZ mutants secreted into the culture medium from animal cultured cells using the secretory signal peptide sequence was measured by the method described in EXAMPLE 9. […] The nanoKAZ-AQQL mutant is secretable protein and can use coelenterazine as the most efficient substrate for the luminescence reaction.

[4] = reported in the literature (Patent Document 2, Non-Patent Documents 5 and 6); cited from earlier work
[5] = Luminescence activity of nanoKAZ mutants secreted into culture medium from CHO-K1 cells using secretory signal peptide sequence; type: biochemical; details: nanoKAZ with CTZ = 1.0
Description: Chinese hamster ovary cell line CHO-K1 was cultured in Ham's F-12 medium (manufactured by Wako Pure Chemical Industries, Ltd.) supplemented with 10% (v/v) fetal bovine serum (manufactured by Biowest Inc.). The CHO-K1 cells were seeded in a 6-well plate in 2×10^5 cells/well/2 mL medium (n=2) and cultured in an incubator at 37° C. in 5% (v/v) CO2. After 24 hours, the purified recombinant plasmid was transfected to CHO-K1 cells using a FuGene HD transfection kit (manufactured by Promega Corp.) and the cells were provided for subsequent experiment. Specifically, 1 μg of the recombinant plasmid, 0.1 μg of the internal standard vector pGL4.13 [Luc2/sv40] and 3.3 μL of FuGene HD were added to 100 μL of the medium and allowed to stand at room temperature for 15 minutes. Subsequently, 100 μL of the DNA-FuGene complex solution was added to the cells in the 6-well plate. After incubation for 46 hours, the culture medium was collected.
as §2, §3

[6] = substrate 6h-coelenterazine, with secretory signal peptide
[7] = substrate 6h-f-coelenterazine, with secretory signal peptide
[8] = substrate bis-coelenterazine, with secretory signal peptide
[9] = substrate coelenterazine (CTZ), with Gaussia luciferase secretory signal peptide
[10] = substrate f-coelenterazine, with secretory signal peptide
[11] = substrate h-coelenterazine, with secretory signal peptide

## nanoKAZ: known mutated 19 kDa catalytic protein of Oplophorus luciferase with 16 amino acid mutations; amino acid sequence SEQ ID NO: 2
[1]
  Relative maximum intensity of luminescence Imax: 1.0 (1.0)
  integrated values of relative intensity of luminescence for 1 min: 1.0 (1.0)
[2]; substrate 6h-coelenterazine
  Relative maximum intensity of luminescence Imax: 0.6
  integrated values of relative intensity of luminescence for 1 min: (0.4)
[2]; substrate 6h-f-coelenterazine
  Relative maximum intensity of luminescence Imax: 7.9
  integrated values of relative intensity of luminescence for 1 min: (4.6)
[2]; substrate bis-coelenterazine
  Relative maximum intensity of luminescence Imax: 9.0
  integrated values of relative intensity of luminescence for 1 min: (6.3)
[2]; substrate coelenterazine (CTZ)
  Relative maximum intensity of luminescence Imax: 1.0
  integrated values of relative intensity of luminescence for 1 min: (1.0)
[2]; substrate f-coelenterazine
  Relative maximum intensity of luminescence Imax: 20.2
  integrated values of relative intensity of luminescence for 1 min: (10.0)
[2]; substrate furimazine
  Relative maximum intensity of luminescence Imax: 4.8
  integrated values of relative intensity of luminescence for 1 min: (3.7)
[2]; substrate h-coelenterazine
  Relative maximum intensity of luminescence Imax: 14.2
  integrated values of relative intensity of luminescence for 1 min: (7.4)
[3]
  Relative maximum intensity of luminescence Imax: 5.9
  integrated values of relative intensity of luminescence for 1 min: (6.2)
[4]
  luminescence activity, fold higher than that of native 19 kDa protein: approximately 10 fold
[5]; [6]
  Relative maximum intensity of luminescence Imax: 0.8
  integrated values of relative intensity of luminescence for 1 min: (0.7)
[5]; [7]
  Relative maximum intensity of luminescence Imax: 11.7
  integrated values of relative intensity of luminescence for 1 min: (11.8)
[5]; [8]
  Relative maximum intensity of luminescence Imax: 11.1
  integrated values of relative intensity of luminescence for 1 min: (11.1)
[5]; [9]
  Relative maximum intensity of luminescence Imax: 1.0
  integrated values of relative intensity of luminescence for 1 min: (1.0)
[5]; [10]
  Relative maximum intensity of luminescence Imax: 21.6
  integrated values of relative intensity of luminescence for 1 min: (12.2)
[5]; [11]
  Relative maximum intensity of luminescence Imax: 16.4
  integrated values of relative intensity of luminescence for 1 min: (9.9)
